From a melting point compilation (Tetko et al.; mined from patent text by program, amines drawn as free bases though some values may be those of a salt)

Compound | melting point
CC1(C)C(C=C2CCSC2=O)C1C(=O)OC(C#N)c1ccc(F)c(Oc2ccccc2)c1 (configuration not stated) | 131 °C
CCOC1=NN(C)C(=O)C1 | 79 to 80 °C
CCOC(=O)c1cc(Nc2cccc(Cl)c2Cl)c(C(=O)OCC)cc1Nc1cccc(Cl)c1Cl | 265 to 266 °C
O=C(Nc1ccc(OCc2ccncc2)c2ccccc12)c1cc(F)cc(N2CCOCC2)c1 | 157 to 159 °C
Cc1[nH]c(Cl)c(C)c1-c1ccnc(Nc2ccc(F)cc2)n1 | 200 to 203 °C
O=C(O)CCC1OC(=O)C(O)=C1c1ccccc1 (configuration not stated) | 177 to 179 °C
COc1ccc(CN2CCN(NC(=O)c3cc(Cl)c(N)cc3OC)CC2)cc1 | 154 to 156 °C
CN1C(=O)CC[C@]2(C)c3ccc(Sc4ccc5cc([N+](=O)[O-])ccc5n4)cc3CC[C@@H]12 | 195 to 196 °C
CCOP(=O)(/C=C/c1cn(-c2ccccc2)nc1OCc1ccc(OCc2coc(-c3ccco3)n2)c(OC)c1)OCC | 96 to 97 °C
CCOC(=O)C(=NOC)C1=CSc2ccccc2S1 | 78 to 81 °C
COc1ccc2c(c1OC)C(=O)c1c-2c(Cl)nc2ccc(Cl)cc12 | 149 to 151 °C
OC1(COc2cccc3ccccc23)CCN(Cc2ccccc2)C1 (configuration not stated) | 130 °C
COCCNC(=O)C(C)Oc1ccc(Oc2ccc(C(F)(F)F)cc2)cc1 (configuration not stated) | 73 to 75 °C
CCCCc1nc(Cl)c(CC(=O)O)c(Cc2ccc(C(=O)O)cc2)n1 | 205 °C
O=C1c2ccccc2SC(O)(c2ccccc2)C2CCCN12 (configuration not stated) | 137 to 141 °C
CC(=Cc1ccc2cc[nH]c2c1)C(=O)O | 188 to 190 °C
COc1ccc(C=CC(=O)c2c(O)cc(OC)cc2OC(C)C)cc1 | 113 °C
COC(=O)c1cc(=O)c2cc(SC)ccc2[nH]1 | 264 to 266 °C
O=Cc1cc2sc3ccccc3c2c2ccccc12 | 142 to 144 °C
O=Cc1cccc(-c2nnc(-c3ccc(C(F)(F)F)cc3)o2)c1 | 129 to 130 °C
Nc1ccc(-c2noc(-c3cnn4c(C(F)F)cc(-c5ccc(C(F)(F)F)c(OCC(F)(F)F)c5)nc34)n2)cn1 | 285 °C
Cc1cccc2c(=O)n(C)c(-c3ccc(OC4CCN(C5CCC5)CC4)cc3)nc12 | 152 to 154 °C
C#CCNC(=O)Oc1cc(-n2c(=O)cc(C(F)(F)F)n(C)c2=O)c(F)cc1Cl | 144 to 146 °C
CCS(=O)c1ccc(-c2coc3ccc(-c4nnc(C)o4)nc23)cc1 (configuration not stated) | 207 to 208 °C
CC(C)(C)C(=O)c1c[nH]c2ncc(-c3ccc(C(=O)NC4CCCC4)s3)nc12 | > 300 °C
O=C(O)c1cc2c(C(F)(F)F)cccc2s1 | 178 to 179 °C

Compound | melting point
O=C1CCC(N2C(=O)c3ccc(CNC(=O)c4ccc5ccccc5n4)cc3C2=O)C(=O)N1 (configuration not stated) | 205 to 207 °C
O=C(O)[C@@H](CCCN1C(=O)c2ccccc2C1=O)NS(=O)(=O)c1ccc(Oc2ccccc2)cc1 | 139 to 140 °C
CCCCCCCCCCCCCCc1ccc2c(c1)C(=O)C(=O)N2 | 87 to 89 °C
CC1NC(=O)NN=C1c1ccc(OCC(=O)NCCN2CCNCC2)c(Cl)c1 (configuration not stated) | 208 to 210 °C
CCCC(Oc1ccc(Cl)c(C)c1)C(=O)NCc1ccccc1 (configuration not stated) | 75 to 78 °C
O=S(=O)(Nc1ccc2c(OCc3coc(-c4ccccc4)n3)cccc2c1)C(F)(F)F | 195 to 197 °C
O=C1C=C/C(=C/c2ccc(C(F)(F)F)cc2)O1 | 92 to 94 °C
CCOC(=O)CCCCC(NS(=O)(=O)c1ccc(F)cc1)c1ccc2ccccc2c1 (configuration not stated) | 91 to 93 °C
OC(c1ccccc1)c1nc(-c2ccncc2)cs1 (configuration not stated) | 146 to 147 °C
COc1ccc(C(=O)Nc2ccc(C3(CNC(=O)c4cscn4)CCCC3)cc2)cc1OC | 101 to 104 °C
Nc1ccc(C(=O)C(=O)c2ccc(N)cc2)cc1 | 207 °C
NS(=O)(=O)OCCOc1ccc(-n2cncn2)cc1 | 134 to 136 °C
Cc1cccc(OCC(=S)NCCNC(=S)Nc2ccccc2)c1C | 112 to 113 °C
CC#CC1(O)CCC2C3CCC4=CC(=O)CCC4C3C(=CF)CC21CC (configuration not stated) | 199 to 205 °C
CCCCCCOc1c(C=Cc2ccc(Br)cc2)ccc2c(OCCCCCC)c(C=Cc3ccc(Br)cc3)ccc12 | 170 to 172 °C
CC(c1ncccn1)C(O)(Cn1cncn1)c1ccc(F)cc1F (configuration not stated) | 193 to 195 °C
Cc1ccc(C)c(NC(=S)N2CCC(c3nc(C4=NOC(c5ccccc5)C4)cs3)CC2)c1 (configuration not stated) | 120 to 123 °C
CN(c1cccc(-c2ccnc3c(C#N)cnn23)c1)S(C)(=O)=O | 193 to 195 °C
C=CCNC1=NS(=O)(=O)c2ccc(Cl)cc2N1 | 284 to 286 °C
C#Cc1c(-c2ccc(F)cc2)cc(C(c2ccccc2)c2ccccc2)nc1C(C)C | 106 to 108 °C
CCC12CC(Cl)C3C4CCC(=O)C=C4CCC3C1C(O)CC2=O (configuration not stated) | 169 to 170 °C
CN(C(=O)OC(C)(C)C)c1ccc(C#CCCCO)cc1 | 103 to 105 °C
Cc1c(O)cc2c(c1C)N(C=O)C(C)(C)C2 | 202 to 204 °C
CC(=O)N[C@@H](CSC(=O)C(C)(C)C)C(=O)NCCSC(C)=O | 92 to 94 °C
CCCCCC1C=CC(c2ccc(C(F)(F)F)cc2)=CC1 (configuration not stated) | 54 °C
COc1cc2c(c(Cl)c1Cl)C(=O)C(C)(C)C2(C)c1ccccc1 (configuration not stated) | 189 to 190 °C

Compound | melting point
O=S1(=O)c2ccccc2Oc2cc(O)ccc21 | 213 to 215 °C
Cn1cc(C2=C(c3c4n(c5ccccc35)CCN(C(=S)n3ccnc3)C4)C(=O)NC2=O)c2ccccc21 | 244 to 247 °C
CCCCN1CCC(n2nc(-c3cc(Cl)cc4c3OCC4)oc2=O)CC1 | 134 °C
CCCc1nc2ccccc2n1CCC1CCN(c2ccccc2-c2nnn[nH]2)CC1 | 231 to 233 °C
Cc1cccc2[nH]c(-c3ccccc3F)nc12 | 161 to 162 °C
N#CC=C(N)c1ccccc1C(F)(F)F | 101 to 103 °C
Fc1ccc2c(c1)CC(n1cc[nH]c1=S)CC2 (configuration not stated) | 215 to 217 °C
O=C(O)c1cc(Oc2ccc([N+](=O)[O-])cc2)cc(Oc2ccc([N+](=O)[O-])cc2)c1 | 230 to 232 °C
Cc1nc2c(O)c(CCC(=O)c3ccccc3)c(C(=O)N3CCC3)cc2n1C | 242 to 243 °C
CCOC(=O)c1cn(C)c2cc(CC)ccc2c1=O | 92 to 94 °C
CC(C)(C)C(=O)Nc1ccc(-c2nc3n(c2-c2ccc(NC(=O)C(C)(C)C)cc2)CCS3)cc1 | 210 to 215 °C
O=C1NC(=S)SC1=Cc1c(F)c(F)c(F)c(F)c1F | 132 to 135 °C
CC1=C(CO)C(C)(C)CCC1=NO | 152 to 155 °C
CC(C)OC(=O)NC1=NCC(c2cccc(F)c2)N1C (configuration not stated) | 103 to 104 °C
CCCc1c(OCCCOc2ccc(C(=O)CCC(=O)O)c(Cl)c2)ccc(C(C)=O)c1O | 143 to 144 °C
O=C(O)c1cc(Cl)ccc1OCc1ccccc1 | 113 to 115 °C
COc1ccc2c3c(c(=O)oc2c1)CN(CCN1CC2CCC1CC2)CC3 | 112 to 113 °C
O=S1(=O)CNc2cccc3cccc1c23 | 206 to 207 °C
O=C(NCCO[N+](=O)[O-])C1COc2ccccc2O1 (configuration not stated) | 69 to 71 °C
Nc1cccc(O)c1Cl | 153 °C
CSc1ncc2ccc(=O)[nH]c2n1 | 270 to 271 °C
CC[Si](C)(C)NC(=O)c1ccc(N)cc1 | 126 to 127 °C
COc1cc(Nc2nc3cccc(-c4ccc(S(=O)(=O)N(C)C)cc4)c3o2)cc(OC)c1OC | 230 to 233 °C
COC(=O)CCNC(=O)C1CCCN1S(=O)(=O)c1ccc(Cl)c(COc2cccc3c(C)cc(C)nc23)c1Cl (configuration not stated) | 64 to 67 °C
O=c1[nH]nc(-c2sc3ccccc3c2Cl)o1 | 218 to 220 °C
OC(CCc1ccc(Br)cc1)Cn1ccnc1 (configuration not stated) | 121 to 122 °C

Compound | melting point
CC(O)=C(C#N)C(=O)Cc1ccc(Cl)cc1 | 50 to 53 °C
COCc1nc(-c2cc(C(C)(C)C)c(O)c(C(C)(C)C)c2)cs1 | 116 to 117 °C
O=C(O)c1ccc(OCc2ccc(F)cc2)cc1 | 109 to 110 °C
O=[N+]([O-])c1ccc(/C=C/c2ccc(Cl)c(C(F)(F)F)c2)cc1 | 173 to 174 °C
Cc1[nH]c2ccc(NS(C)(=O)=O)cc2c1C1=CCN(C)CC1 | 176 to 184 °C
Cc1cc(Cl)cc(C(=O)Nc2ccc(F)cn2)n1 | 156 °C
CC(C(=O)NCc1ccc(C(C)(C)C)cc1)c1ccc(NS(C)(=O)=O)c(F)c1 (configuration not stated) | 52 to 54 °C
CCOc1cc(-n2c(=O)cc(C(F)(F)F)n(C)c2=O)c(F)cc1Cl | 118 to 121 °C
CCCCCCCCCCCCn1nnc(NC2CCCCC2)n1 | 51 to 53 °C
COC(=O)c1ccccc1-c1cc(-c2ccc(Cl)cc2)no1 | 89.5 to 91 °C
CN1C(=C(C#N)C#N)Oc2ccccc21 | 198 to 200 °C
CC(C)CN1C(=O)C(NC(=O)c2cc3ccccc3[nH]2)N=C(N2CCCCCC2)c2ccccc21 (single isomer, unassigned; (-)) | 240 to 241 °C
O=[N+]([O-])c1ccc(NN=CCc2cccnc2)cc1 | 212 to 214 °C
CC#CC1(O)CCC2C3CCC4=CC(=O)CCC4C3CCC21CCC (configuration not stated) | 182 to 184 °C
COc1ccc(C(=O)Nc2ccc(Cl)c(Cl)c2)cc1NCc1cccs1 | 178 to 180 °C
CCOCc1nc2c(N)nc3cc(-c4cncc(CO)c4)cnc3c2n1CC(C)(C)O | 212 to 214 °C
CC(=O)Oc1cc(C)ccc1C1CCN(CCCCNC(=O)c2ccc(NC(=O)c3ccc(Cl)cc3)cc2)CC1 | 210 °C
O=C1CC2CCc3ccncc3C2=NN1c1ccc(C(F)(F)F)cc1 (configuration not stated) | 141 to 142 °C
CN(C)CCN(CCC12CC3CC(CC(C3)C1)C2)C(=O)NCCCc1ccncc1 | 104 to 106 °C
CC(C)(C)NS(=O)(=O)c1c(C(F)F)nsc1OCC(F)(F)F | 105 to 106 °C
Fc1ccc(-c2ncn(C3CC3)c2-c2ccncc2)cc1 | 129 to 130 °C
CC(=O)Nc1cccc2ccc(OCC3CC3)cc12 | 154 to 155 °C
CC(C)(CN)c1ccc(C(=O)Nc2cn3cc(Cl)ccc3n2)cc1 | 245 to 247 °C
CCCCCCCCn1nnc(NC(=O)Nc2c(C(C)C)cccc2C(C)C)n1 | 139 to 140 °C
